Source: ChEMBL document CHEMBL6078632, “Discovery of Janus Kinase and Histone Deacetylase Dual Inhibitors as a New Strategy to Treat Psoriasis” (J Med Chem, 2024)
Calls of active or inactive are those of the source. The rule behind the calls is not given here.

Assays:
HaCaT = assay: cells; details: Homo sapiens, 48 h
Description: Antiproliferative activity against human HaCAT cells assessed as inhibition of TNFalpha-induced proliferation measured after 48 hrs by CCK-8 assay

Histone deacetylase 1 = Histone deacetylase 1 (Homo sapiens, UniProt Q13547); assay: Inhibition of recombinant human HDAC1 using (Ac-Leu-Gly-Lys(Ac)-AMC as substrate measured after 30 mins by fluorescence assay
[1] = target: T1, Tyrosine-protein kinase JAK2 (Homo sapiens, UniProt O60674); assay: Inhibition of JAK2 (unknown origin) using FAM-labelled peptide and ATP at 100 nM measured after 25 mins incubation relative to control
RAW264.7 [2] = assay: cells; type: functional; details: Mus musculus, time 24 hrs
Description: Antiinflammatory activity in mouse RAW264.7 cells assessed as inhibition of LPS-induced NO release at 0.4 uM incubated for 24 hrs relative to control

RAW264.7 [3] = assay: Antiinflammatory activity in mouse RAW264.7 cells assessed as inhibition of LPS-induced TNFalpha release at 0.9 uM incubated for 24 hrs by ELISA; type: functional, cell-based
[4] = Metabolic stability of the compound in female ICR mouse liver microsomes assessed as clearance at 1 uM measured up to 45 mins by LC-MS/MS analysis; type: ADME; details: read-out: CLH
[5] = Acute toxicity in BALB/c mouse assessed as animal death at 7508 mg/kg; type: organism-based; details: in vivo
[6] = Acute toxicity in BALB/c mouse assessed as animal death; details: in vivo
RAW264.7 [7] = assay: Antiinflammatory activity in mouse RAW264.7 cells assessed as inhibition of LPS-induced IL-12 release at 0.9 uM incubated for 24 hrs by ELISA; type: functional, cell-based
[8] = target: T1, Tyrosine-protein kinase JAK2; assay: Inhibition of JAK2 (unknown origin) using FAM-labelled peptide and ATP measured after 25 mins incubation relative to control
RAW264.7 [9] = assay: Antiinflammatory activity in mouse RAW264.7 cells assessed as inhibition of LPS-induced NO release at 0.10 uM incubated for 24 hrs relative to control; type: functional
RAW264.7 [10] = assay: Antiinflammatory activity in mouse RAW264.7 cells assessed as inhibition of LPS-induced NO release at 0.20 uM incubated for 24 hrs relative to control; type: functional
Mus musculus [11] = assay: Antipsoriatic activity against imiquimod-induced psoriasis BALB/c mouse model assessed as improvement in psoriatic symptom at 0.25 % applied topically back of the mouse for 7 consecutive days; type: functional, organism-based; details: route top
[12] = target: Platelet-derived growth factor receptor alpha (Homo sapiens) (UniProt P16234); assay: Inhibition of PDGFRalpha (unknown origin) at 10 nM relative to control
[13] = target: Non-receptor tyrosine-protein kinase TYK2 (Homo sapiens, UniProt P29597); assay: Inhibition of TYK2 (unknown origin) using FAM-labelled peptide and ATP measured after 25 mins incubation relative to control
[14] = Antiproliferative activity against HUVEC cells; details: human
Mus musculus [15] = assay: Antipsoriatic activity against imiquimod-induced psoriasis BALB/c mouse model assessed as reduction in skin thickness at 0.25 % applied topically back of the mouse for 7 consecutive days by hematoxylin and eosin staining based histological analysis; type: functional, organism-based; details: route top
[16] = target: T2, Tyrosine-protein kinase JAK3 (Homo sapiens, UniProt P52333); assay: Inhibition of JAK3 (unknown origin) using FAM-labelled peptide and ATP measured after 25 mins incubation relative to control
T2 sequence (P52333 whole entry): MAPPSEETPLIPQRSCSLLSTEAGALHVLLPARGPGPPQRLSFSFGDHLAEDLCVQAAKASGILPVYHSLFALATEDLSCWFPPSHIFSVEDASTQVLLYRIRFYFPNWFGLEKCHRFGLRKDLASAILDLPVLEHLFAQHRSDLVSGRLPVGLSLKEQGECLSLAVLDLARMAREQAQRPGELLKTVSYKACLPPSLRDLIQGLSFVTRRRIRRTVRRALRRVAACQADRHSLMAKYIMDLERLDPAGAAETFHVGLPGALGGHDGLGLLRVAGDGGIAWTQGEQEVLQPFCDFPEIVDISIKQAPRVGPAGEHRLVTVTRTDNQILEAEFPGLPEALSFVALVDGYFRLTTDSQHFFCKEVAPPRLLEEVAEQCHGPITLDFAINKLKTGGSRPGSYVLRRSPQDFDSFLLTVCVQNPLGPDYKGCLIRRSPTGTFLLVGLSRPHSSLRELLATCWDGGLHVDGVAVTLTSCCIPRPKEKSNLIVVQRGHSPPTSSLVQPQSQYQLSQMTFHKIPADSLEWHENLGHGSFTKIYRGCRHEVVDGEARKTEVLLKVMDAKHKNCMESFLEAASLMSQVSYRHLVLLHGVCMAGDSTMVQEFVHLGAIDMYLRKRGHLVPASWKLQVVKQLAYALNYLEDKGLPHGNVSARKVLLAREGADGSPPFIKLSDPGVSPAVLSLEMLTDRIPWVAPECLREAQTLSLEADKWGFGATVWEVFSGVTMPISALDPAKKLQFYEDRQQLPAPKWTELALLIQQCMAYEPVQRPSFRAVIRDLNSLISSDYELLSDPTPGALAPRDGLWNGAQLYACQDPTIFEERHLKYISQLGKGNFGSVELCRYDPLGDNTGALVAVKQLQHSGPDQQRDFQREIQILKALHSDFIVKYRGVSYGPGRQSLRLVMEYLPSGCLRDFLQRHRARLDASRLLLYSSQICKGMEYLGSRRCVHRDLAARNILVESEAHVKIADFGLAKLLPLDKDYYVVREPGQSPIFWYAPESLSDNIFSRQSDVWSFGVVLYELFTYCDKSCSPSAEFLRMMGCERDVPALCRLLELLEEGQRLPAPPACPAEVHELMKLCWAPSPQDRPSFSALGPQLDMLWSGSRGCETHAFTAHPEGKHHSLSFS

[17] = Metabolic stability of the compound in female ICR mouse liver microsomes assessed as half life at 1 uM measured up to 45 mins by LC-MS/MS analysis; type: ADME
Mus musculus [18] = assay: Antipsoriatic activity against imiquimod-induced psoriasis BALB/c mouse model assessed as improvement in psoriatic symptom at 0.25 to 0.5 % applied topically back of the mouse for 7 consecutive days; type: functional, organism-based; details: dose 0.25-0.5 %, route top
RAW264.7 [19] = assay: Antiinflammatory activity in mouse RAW264.7 cells assessed as inhibition of LPS-induced IFN-gamma release at 0.9 uM incubated for 24 hrs by ELISA; type: functional, cell-based
Mus musculus [20] = assay: Antipsoriatic activity against imiquimod-induced psoriasis BALB/c mouse model assessed as reduction in epidermal thickness applied topically back of the mouse for 7 consecutive days by hematoxylin and eosin staining based histological analysis; type: functional, organism-based; details: dose 0.25-0.5 %, route top
Mus musculus [21] = assay: Antipsoriatic activity against imiquimod-induced psoriasis BALB/c mouse model assessed as improvement in psoriatic symptom at 0.5 % applied topically back of the mouse for 7 consecutive days; type: functional, organism-based; details: route top
Histone deacetylase 8 = target: T3, Histone deacetylase 8 (Homo sapiens, UniProt Q9BY41); assay: Inhibition of recombinant human HDAC8 using (Ac-Leu-Gly-Lys(Tfa)-AMC as substrate measured after 30 mins by fluorescence assay
T3 sequence (Q9BY41 whole entry): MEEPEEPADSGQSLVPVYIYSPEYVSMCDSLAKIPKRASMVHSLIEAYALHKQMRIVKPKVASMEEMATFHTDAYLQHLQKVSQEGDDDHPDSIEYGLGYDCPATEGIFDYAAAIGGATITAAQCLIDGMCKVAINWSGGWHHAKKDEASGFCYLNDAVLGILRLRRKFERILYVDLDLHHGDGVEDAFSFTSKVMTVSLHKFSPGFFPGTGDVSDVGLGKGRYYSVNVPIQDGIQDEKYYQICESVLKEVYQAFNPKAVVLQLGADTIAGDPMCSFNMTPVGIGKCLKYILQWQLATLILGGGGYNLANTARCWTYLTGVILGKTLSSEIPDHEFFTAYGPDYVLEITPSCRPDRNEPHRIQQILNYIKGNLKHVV

[22] = Antiproliferative activity against human LO2 cells; type: toxicity, cell-based, L02
Mus musculus [23] = assay: Antipsoriatic activity against imiquimod-induced psoriasis BALB/c mouse model assessed as reduction in skin thickness at 0.5 % applied topically back of the mouse for 7 consecutive days by hematoxylin and eosin staining based histological analysis; type: functional, organism-based; details: route top

Histone deacetylase 1, sequence (Q13547 whole entry): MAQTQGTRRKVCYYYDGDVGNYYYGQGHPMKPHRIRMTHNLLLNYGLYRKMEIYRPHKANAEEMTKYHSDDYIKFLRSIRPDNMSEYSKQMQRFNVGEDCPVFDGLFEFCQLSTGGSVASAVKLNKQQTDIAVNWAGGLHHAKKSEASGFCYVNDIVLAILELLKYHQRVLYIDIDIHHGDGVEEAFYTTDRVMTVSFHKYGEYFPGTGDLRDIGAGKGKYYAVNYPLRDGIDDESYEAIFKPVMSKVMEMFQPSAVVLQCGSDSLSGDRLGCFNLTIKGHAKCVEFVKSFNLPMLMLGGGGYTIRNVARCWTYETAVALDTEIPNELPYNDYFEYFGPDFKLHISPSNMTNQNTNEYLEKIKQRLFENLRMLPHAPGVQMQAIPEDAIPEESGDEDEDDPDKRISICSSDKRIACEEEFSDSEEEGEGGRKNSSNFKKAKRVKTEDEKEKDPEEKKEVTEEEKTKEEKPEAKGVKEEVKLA
T1 sequence (O60674 whole entry): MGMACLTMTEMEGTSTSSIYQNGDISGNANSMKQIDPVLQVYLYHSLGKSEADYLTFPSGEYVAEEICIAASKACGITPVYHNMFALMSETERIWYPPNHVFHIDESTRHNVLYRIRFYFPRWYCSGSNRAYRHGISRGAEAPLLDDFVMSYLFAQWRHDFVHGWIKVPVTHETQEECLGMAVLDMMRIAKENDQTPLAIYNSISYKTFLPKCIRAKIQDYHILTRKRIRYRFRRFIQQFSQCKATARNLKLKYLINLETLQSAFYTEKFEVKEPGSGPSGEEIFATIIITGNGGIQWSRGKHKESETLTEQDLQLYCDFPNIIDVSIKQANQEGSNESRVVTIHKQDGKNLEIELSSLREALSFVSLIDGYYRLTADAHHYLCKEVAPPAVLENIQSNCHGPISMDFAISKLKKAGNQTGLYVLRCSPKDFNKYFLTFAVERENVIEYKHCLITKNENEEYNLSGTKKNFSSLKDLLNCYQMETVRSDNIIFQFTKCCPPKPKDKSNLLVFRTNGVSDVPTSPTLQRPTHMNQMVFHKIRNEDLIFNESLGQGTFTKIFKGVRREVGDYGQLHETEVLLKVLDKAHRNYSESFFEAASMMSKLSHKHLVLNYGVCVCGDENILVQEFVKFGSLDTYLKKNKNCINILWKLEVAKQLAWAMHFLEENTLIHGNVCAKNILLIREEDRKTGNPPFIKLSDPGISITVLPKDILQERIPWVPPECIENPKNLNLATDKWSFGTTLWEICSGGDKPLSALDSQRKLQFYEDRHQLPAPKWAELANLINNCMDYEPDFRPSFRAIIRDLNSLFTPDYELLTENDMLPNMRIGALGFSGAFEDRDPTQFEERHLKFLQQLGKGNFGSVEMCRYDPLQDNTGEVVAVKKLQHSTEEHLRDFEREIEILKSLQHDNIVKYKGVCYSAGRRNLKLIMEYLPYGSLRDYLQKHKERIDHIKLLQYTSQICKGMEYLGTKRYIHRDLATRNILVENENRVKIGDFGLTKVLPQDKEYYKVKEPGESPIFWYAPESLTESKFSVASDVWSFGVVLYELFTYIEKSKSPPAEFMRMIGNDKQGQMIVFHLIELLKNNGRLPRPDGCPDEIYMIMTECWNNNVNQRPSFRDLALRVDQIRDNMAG
Non-receptor tyrosine-protein kinase TYK2, sequence (P29597 whole entry): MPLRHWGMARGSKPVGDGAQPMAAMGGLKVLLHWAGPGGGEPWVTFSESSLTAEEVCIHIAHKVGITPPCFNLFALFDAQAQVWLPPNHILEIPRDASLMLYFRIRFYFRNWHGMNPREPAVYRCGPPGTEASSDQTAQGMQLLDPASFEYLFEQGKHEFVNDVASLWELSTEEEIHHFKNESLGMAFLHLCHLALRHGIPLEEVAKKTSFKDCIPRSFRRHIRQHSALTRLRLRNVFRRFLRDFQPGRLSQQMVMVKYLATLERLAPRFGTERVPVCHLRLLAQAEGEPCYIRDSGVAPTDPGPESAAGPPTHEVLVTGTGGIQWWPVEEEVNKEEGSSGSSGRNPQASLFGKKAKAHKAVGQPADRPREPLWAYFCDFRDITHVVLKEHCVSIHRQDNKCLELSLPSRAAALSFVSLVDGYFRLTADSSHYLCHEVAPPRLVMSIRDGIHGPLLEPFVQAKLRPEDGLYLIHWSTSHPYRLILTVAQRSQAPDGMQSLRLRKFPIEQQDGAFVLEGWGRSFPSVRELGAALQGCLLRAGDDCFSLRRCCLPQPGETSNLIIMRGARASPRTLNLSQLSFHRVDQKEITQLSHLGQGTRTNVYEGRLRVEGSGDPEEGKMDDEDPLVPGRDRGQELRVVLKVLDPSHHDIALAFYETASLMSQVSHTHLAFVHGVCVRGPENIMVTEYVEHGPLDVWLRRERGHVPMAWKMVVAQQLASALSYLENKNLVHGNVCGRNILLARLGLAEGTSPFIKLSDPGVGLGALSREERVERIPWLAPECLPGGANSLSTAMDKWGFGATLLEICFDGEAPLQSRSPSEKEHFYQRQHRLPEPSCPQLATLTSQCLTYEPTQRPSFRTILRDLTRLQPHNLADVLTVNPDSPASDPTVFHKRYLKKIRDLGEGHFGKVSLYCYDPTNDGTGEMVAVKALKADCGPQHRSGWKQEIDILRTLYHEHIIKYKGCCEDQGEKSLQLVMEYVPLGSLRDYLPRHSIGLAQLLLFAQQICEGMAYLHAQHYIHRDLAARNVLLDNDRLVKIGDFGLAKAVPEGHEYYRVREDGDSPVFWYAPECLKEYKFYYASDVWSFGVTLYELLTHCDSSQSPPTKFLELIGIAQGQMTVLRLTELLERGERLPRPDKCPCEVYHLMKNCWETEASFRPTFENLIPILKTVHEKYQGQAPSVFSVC
Platelet-derived growth factor receptor alpha (Homo sapiens), sequence (P16234 whole entry): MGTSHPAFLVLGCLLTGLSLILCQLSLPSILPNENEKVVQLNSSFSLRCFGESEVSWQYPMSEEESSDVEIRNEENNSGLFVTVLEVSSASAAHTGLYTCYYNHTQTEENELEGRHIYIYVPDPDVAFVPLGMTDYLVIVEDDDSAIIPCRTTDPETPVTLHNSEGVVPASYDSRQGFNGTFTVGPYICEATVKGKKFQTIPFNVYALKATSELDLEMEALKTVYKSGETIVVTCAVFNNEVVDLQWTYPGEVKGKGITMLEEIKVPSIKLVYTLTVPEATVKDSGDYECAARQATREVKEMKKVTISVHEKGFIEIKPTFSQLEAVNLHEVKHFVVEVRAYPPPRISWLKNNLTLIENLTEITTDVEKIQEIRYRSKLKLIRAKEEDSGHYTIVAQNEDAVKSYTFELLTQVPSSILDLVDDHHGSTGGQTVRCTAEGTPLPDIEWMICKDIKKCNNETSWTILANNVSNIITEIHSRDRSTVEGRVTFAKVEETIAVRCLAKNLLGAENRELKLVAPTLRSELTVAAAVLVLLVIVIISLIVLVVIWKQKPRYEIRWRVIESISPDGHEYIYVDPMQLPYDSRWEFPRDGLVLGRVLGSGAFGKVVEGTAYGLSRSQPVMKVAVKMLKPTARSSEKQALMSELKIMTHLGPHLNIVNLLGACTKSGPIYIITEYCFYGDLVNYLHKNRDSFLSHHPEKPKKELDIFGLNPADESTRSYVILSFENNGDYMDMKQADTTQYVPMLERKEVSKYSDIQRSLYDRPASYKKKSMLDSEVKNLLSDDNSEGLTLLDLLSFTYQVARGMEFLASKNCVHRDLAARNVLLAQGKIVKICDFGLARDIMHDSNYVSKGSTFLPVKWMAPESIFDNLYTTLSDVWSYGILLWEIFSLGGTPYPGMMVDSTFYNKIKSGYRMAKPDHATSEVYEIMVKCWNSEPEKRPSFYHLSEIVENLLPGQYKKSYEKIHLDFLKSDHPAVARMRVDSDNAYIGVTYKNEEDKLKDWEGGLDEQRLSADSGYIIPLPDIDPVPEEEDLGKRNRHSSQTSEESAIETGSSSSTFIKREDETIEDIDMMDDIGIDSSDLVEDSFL

Structure (SMILES)	IC50 (HaCaT) [µM]	inhibition [1] [%]	inhibition at 0.4 µM (RAW264.7 [2]) [%]	further results
CS(=O)(=O)Nc1ccc(-c2ccnc(Nc3ccc(N4CCN(CC(=O)NCCC(=O)NO)CC4)cc3)n2)cc1	> 50	99		IC50 (Histone deacetylase 1): > 2000 nM
CS(=O)(=O)Nc1ccc(-c2ccnc(Nc3ccc(N4CCN(CC(=O)NCCCCC(=O)NO)CC4)cc3)n2)cc1	16	98		
CS(=O)(=O)Nc1ccc(-c2ccnc(Nc3ccc(N4CCN(CC(=O)Nc5ccc(C(=O)NO)s5)CC4)cc3)n2)cc1	1.4	99	82.1	
CS(=O)(=O)Nc1ccc(-c2ccnc(Nc3ccc(-c4cn(CC(=O)NCCCCCC(=O)NO)nn4)cc3)n2)cc1	> 50	98		
CS(=O)(=O)Nc1ccc(-c2ccnc(Nc3ccc(N4CCN(CC(=O)NO)CC4)cc3)n2)cc1	10	99		IC50 (Histone deacetylase 1): > 2000 nM
CS(=O)(=O)Nc1ccc(-c2ccnc(Nc3ccc(-c4cn(CC(=O)NCCCC(=O)NO)nn4)cc3)n2)cc1	> 50	99		
CS(=O)(=O)Nc1ccc(-c2ccnc(Nc3ccc(-c4cn(CC(=O)Nc5ccc(C(=O)NO)cc5)nn4)cc3)n2)cc1	> 50	98		IC50 (Histone deacetylase 1): > 2000 nM
CS(=O)(=O)Nc1ccc(-c2ccnc(Nc3ccc(N4CCN(CC(=O)Nc5ccc(C(=O)NO)cc5)CC4)cc3)n2)cc1	1.2	99	105	Activity (RAW264.7 [3]): Active; CLint scaled at 1 µM [4]: 138 mL/min/kg; Activity [5]: Non-toxic; LD50 [6]: > 7510 mg/kg; Activity (RAW264.7 [7]): Active; IC50 [8]: 0.49 nM; inhibition at 0.1 µM (RAW264.7 [9]): 105%; inhibition at 0.2 µM (RAW264.7 [10]): 105%; Activity (Mus musculus [11]): Active; Compound Showed Better Activity Than 11G And Vorinostat/Momelotinib Control; inhibition [12]: > 50%; IC50 [13]: 2.6 nM; IC50 [14]: 10 µM; Activity (Mus musculus [15]): Active; IC50 [16]: 5.6 nM; half-life at 1 µM [17]: 39.8 min; Activity (Mus musculus [18]): Active; Activity (RAW264.7 [19]): Active; Activity (Mus musculus [20]): Dose-dependent-effect
CS(=O)(=O)Nc1ccc(-c2ccnc(Nc3ccc(N4CCN(CC(=O)NCCCC(=O)NO)CC4)cc3)n2)cc1	17	100		
CS(=O)(=O)Nc1ccc(-c2ccnc(Nc3ccc(N4CCN(CC(=O)NCCCCCCC(=O)NO)CC4)cc3)n2)cc1	5.3	99	73.9	
N#CCNC(=O)c1ccc(-c2ccnc(Nc3ccc(N4CCOCC4)cc3)n2)cc1 [MOMELOTINIB]	13		94.8	IC50 [14]: 7.3 µM; IC50 (Histone deacetylase 1): 40 nM
CS(=O)(=O)Nc1ccc(-c2ccnc(Nc3ccc(-c4cn(CC(=O)NO)nn4)cc3)n2)cc1	> 50	99		IC50 (Histone deacetylase 1): > 2000 nM
C[C@@H]1CCN(C(=O)CC#N)C[C@@H]1N(C)c1ncnc2[nH]ccc12 [TOFACITINIB]	> 50			
CS(=O)(=O)Nc1ccc(-c2ccnc(Nc3ccc(-c4cn(CC(=O)NCCCCC(=O)NO)nn4)cc3)n2)cc1	> 50	98		
CS(=O)(=O)Nc1ccc(-c2ccnc(Nc3ccc(-c4cn(CC(=O)NCCCCCCC(=O)NO)nn4)cc3)n2)cc1	> 50	99		
CS(=O)(=O)Nc1ccc(-c2ccnc(Nc3ccc(N4CCN(CC(=O)Nc5ccc(/C=C/C(=O)NO)cc5)CC4)cc3)n2)cc1		99	110	Activity (RAW264.7 [3]): Active; CLint scaled at 1 µM [4]: 97.5 mL/min/kg; Activity (Mus musculus [21]): Active; Activity (RAW264.7 [7]): Active; IC50 [8]: 0.72 nM; inhibition at 0.1 µM (RAW264.7 [9]): 82.1%; IC50 (Histone deacetylase 8): > 1000 nM; inhibition at 0.2 µM (RAW264.7 [10]): 105%; IC50 [13]: 4.4 nM; IC50 [22]: 5 µM; Activity (Mus musculus [15]): Active; IC50 [16]: 7.9 nM; Activity (Mus musculus [23]): Active; half-life at 1 µM [17]: 56.3 min; Activity (RAW264.7 [19]): Active
CS(=O)(=O)Nc1ccc(-c2ccnc(Nc3ccc(N4CCN(CC(=O)NCCCCCC(=O)NO)CC4)cc3)n2)cc1	9.6	99		
CS(=O)(=O)Nc1ccc(-c2ccnc(Nc3ccc(-c4cn(CC(=O)NCCC(=O)NO)nn4)cc3)n2)cc1	> 50	97		
CS(=O)(=O)Nc1ccc(-c2ccnc(Nc3ccc(-c4cn(CC(=O)NCCCCCCCC(=O)NO)nn4)cc3)n2)cc1	> 50			
CS(=O)(=O)Nc1ccc(-c2ccnc(Nc3ccc(N4CCN(CC(=O)NCCCCCCCC(=O)NO)CC4)cc3)n2)cc1	10	100	71.3	
